Laboratory results reported in ChEMBL document CHEMBL4507268 (2021).

How the values were obtained:
Settings in all cases: Compound concentration 1.0 uM
[1] = biological target: Tyrosine-protein kinase BTK (Homo sapiens) (UniProt Q06187)
[2] = biological target: Calcium/calmodulin-dependent protein kinase type 1 (Homo sapiens) (UniProt Q14012)
[3] = biological target: Calcium/calmodulin-dependent protein kinase type II subunit gamma (Homo sapiens) (UniProt Q13555)
[4] = biological target: Calcium/calmodulin-dependent protein kinase type 1D (Homo sapiens) (UniProt Q8IU85)
[5] = biological target: Cyclin-dependent kinase 5/CDK5 activator 1 (Homo sapiens) (UniProt Q00535+Q15078)
[6] = biological target: CDK12/Cyclin K (Homo sapiens) (UniProt O75909+Q9NYV4)
[7] = biological target: Cyclin-dependent kinase-like 3 (Homo sapiens) (UniProt Q8IVW4)
[8] = biological target: Death-associated protein kinase 1 (Homo sapiens) (UniProt P53355)
Death-associated protein kinase 1 (Homo sapiens), sequence (P53355 whole entry, looked up): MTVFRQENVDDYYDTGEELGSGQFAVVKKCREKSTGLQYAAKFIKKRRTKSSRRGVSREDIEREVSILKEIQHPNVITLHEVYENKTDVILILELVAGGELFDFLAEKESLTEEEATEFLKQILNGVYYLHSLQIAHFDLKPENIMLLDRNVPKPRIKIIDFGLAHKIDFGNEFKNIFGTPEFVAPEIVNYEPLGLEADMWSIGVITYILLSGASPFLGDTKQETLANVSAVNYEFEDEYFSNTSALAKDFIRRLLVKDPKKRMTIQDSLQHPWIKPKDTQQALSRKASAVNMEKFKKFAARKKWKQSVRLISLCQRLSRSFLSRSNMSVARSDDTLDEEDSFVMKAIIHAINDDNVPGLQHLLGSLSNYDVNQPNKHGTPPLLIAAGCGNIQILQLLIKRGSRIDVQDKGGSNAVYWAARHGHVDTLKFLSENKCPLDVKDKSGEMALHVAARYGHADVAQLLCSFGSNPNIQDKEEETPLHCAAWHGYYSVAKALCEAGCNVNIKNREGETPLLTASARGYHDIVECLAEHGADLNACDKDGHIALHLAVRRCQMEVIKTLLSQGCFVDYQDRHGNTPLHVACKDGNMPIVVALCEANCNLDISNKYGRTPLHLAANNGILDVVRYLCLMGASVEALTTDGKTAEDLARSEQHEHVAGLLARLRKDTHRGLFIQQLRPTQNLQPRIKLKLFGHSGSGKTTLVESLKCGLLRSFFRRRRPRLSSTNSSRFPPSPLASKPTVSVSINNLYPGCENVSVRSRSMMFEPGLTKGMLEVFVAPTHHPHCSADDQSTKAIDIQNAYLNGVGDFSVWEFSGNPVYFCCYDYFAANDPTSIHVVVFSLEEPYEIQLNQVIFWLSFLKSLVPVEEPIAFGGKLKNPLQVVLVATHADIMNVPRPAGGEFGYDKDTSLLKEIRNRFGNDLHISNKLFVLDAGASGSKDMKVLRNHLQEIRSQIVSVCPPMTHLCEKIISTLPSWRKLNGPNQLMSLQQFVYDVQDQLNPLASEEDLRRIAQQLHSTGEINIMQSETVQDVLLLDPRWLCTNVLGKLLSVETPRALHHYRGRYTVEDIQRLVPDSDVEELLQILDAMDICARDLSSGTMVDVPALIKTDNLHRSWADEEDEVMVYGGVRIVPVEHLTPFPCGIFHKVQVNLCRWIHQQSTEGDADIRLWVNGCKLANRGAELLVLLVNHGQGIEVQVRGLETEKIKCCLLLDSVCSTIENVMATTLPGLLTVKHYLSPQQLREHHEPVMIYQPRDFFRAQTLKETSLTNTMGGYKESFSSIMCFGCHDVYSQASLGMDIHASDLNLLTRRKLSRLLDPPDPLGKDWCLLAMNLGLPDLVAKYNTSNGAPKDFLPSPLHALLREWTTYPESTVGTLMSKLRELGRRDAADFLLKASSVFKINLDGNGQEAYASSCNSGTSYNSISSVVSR

[9] = biological target: T1, Serine/threonine-protein kinase 17B (Homo sapiens) (UniProt O94768)
T1 sequence (whole entry): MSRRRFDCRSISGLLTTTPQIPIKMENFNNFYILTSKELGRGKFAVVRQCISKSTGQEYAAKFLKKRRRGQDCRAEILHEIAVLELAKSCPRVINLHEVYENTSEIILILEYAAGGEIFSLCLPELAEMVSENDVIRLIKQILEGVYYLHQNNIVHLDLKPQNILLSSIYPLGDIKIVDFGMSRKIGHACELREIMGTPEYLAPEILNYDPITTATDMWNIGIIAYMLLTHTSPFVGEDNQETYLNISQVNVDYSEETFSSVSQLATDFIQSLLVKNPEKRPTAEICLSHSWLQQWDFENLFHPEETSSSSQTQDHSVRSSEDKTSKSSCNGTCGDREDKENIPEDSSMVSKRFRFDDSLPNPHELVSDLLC

[10] = biological target: Ephrin type-A receptor 4 (Homo sapiens) (UniProt P54764)
[11] = biological target: Tyrosine-protein kinase Fer (Homo sapiens) (UniProt P16591)
[12] = biological target: Fibroblast growth factor receptor 4 (Homo sapiens) (UniProt P22455)
[13] = biological target: T2, Tyrosine-protein kinase JAK3 (Homo sapiens) (UniProt P52333)
T2 sequence (whole entry): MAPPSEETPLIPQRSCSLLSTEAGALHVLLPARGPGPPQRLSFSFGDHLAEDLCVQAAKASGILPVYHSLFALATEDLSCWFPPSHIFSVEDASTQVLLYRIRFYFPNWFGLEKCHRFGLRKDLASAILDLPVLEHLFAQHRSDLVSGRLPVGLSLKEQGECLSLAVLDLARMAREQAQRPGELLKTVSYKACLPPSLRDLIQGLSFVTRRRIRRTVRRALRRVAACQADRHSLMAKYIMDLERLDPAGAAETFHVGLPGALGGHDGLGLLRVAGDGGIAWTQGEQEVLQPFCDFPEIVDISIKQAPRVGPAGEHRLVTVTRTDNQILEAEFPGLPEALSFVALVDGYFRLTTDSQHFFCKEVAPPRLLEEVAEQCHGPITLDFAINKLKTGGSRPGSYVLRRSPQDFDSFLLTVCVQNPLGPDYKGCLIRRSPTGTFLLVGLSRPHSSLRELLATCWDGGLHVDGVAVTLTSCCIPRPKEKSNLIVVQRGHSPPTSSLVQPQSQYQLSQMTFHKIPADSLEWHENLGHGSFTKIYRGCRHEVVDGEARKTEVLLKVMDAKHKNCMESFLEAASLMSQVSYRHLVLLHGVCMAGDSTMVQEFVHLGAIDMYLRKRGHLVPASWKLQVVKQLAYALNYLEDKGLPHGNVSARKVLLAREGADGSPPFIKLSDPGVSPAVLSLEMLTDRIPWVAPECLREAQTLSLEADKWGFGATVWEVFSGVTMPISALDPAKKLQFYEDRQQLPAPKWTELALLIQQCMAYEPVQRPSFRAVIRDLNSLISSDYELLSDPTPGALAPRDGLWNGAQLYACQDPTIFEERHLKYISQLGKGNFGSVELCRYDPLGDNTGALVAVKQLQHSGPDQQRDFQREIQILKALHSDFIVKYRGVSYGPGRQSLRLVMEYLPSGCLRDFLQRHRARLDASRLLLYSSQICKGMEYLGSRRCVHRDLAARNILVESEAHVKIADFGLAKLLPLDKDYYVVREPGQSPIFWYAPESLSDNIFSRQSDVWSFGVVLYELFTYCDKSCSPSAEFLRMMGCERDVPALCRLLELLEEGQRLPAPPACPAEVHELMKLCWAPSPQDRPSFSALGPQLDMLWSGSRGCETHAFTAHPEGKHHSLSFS

[14] = biological target: Mitogen-activated protein kinase 10 (Homo sapiens) (UniProt P53779)
[15] = biological target: Serine/threonine-protein kinase 10 (Homo sapiens) (UniProt O94804)
Serine/threonine-protein kinase 10 (Homo sapiens), sequence (O94804 whole entry, looked up): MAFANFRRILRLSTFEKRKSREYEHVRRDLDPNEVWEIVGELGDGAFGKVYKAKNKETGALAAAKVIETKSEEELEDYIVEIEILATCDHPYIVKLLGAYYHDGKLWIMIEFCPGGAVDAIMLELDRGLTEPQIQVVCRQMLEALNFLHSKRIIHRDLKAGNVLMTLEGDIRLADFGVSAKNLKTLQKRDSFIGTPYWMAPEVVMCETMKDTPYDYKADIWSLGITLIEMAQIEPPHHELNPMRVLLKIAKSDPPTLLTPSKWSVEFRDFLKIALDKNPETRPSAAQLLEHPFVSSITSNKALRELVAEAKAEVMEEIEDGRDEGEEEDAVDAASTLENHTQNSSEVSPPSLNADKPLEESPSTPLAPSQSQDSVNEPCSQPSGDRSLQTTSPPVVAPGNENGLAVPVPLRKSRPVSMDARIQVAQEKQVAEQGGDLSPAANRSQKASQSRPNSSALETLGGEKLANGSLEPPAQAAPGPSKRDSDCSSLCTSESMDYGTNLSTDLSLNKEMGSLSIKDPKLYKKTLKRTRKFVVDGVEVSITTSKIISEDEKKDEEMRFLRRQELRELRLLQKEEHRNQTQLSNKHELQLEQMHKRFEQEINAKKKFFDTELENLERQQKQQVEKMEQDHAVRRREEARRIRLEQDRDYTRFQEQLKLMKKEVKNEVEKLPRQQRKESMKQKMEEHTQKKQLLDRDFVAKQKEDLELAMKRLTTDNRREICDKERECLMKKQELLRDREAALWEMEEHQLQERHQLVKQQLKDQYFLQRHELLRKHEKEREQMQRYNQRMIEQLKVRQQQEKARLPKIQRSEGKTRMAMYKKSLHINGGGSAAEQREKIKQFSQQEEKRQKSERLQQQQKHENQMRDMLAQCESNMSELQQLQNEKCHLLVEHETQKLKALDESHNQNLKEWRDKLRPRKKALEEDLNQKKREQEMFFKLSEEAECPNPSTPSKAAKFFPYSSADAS

[16] = biological target: T3, Dual specificity mitogen-activated protein kinase kinase 3 (Homo sapiens) (UniProt P46734)
T3 sequence (whole entry): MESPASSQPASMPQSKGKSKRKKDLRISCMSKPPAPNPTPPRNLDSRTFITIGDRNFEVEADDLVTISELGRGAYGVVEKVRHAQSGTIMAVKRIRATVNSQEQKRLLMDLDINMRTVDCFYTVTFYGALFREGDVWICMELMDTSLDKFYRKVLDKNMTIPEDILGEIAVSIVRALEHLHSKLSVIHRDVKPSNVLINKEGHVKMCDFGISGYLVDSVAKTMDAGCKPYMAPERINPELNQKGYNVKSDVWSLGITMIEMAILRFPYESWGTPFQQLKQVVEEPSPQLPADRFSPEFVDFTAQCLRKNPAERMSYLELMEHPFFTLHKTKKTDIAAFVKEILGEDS

[17] = biological target: Serine/threonine-protein kinase PAK 4 (Homo sapiens) (UniProt O96013)
Serine/threonine-protein kinase PAK 4 (Homo sapiens), sequence (O96013 whole entry, looked up): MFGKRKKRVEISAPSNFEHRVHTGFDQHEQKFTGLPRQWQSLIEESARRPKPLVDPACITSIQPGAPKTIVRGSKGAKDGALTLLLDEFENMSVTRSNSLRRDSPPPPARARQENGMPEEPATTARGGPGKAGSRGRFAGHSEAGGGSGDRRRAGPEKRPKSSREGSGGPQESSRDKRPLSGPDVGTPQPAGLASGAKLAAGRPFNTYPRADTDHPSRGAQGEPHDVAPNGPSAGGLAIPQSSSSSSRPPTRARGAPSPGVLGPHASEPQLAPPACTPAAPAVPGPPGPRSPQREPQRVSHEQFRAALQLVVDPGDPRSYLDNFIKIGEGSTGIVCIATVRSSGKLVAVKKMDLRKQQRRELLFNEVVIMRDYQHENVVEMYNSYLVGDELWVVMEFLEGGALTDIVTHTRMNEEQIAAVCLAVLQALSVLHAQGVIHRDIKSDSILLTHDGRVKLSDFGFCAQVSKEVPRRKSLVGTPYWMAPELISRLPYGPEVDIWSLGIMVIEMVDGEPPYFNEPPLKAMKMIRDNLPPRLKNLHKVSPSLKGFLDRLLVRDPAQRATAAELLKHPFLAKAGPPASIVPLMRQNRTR

[18] = biological target: Serine/threonine-protein kinase PAK 5 (Homo sapiens) (UniProt Q9P286)
[19] = biological target: Protein kinase C gamma type (Homo sapiens) (UniProt P05129)
[20] = biological target: Ribosomal protein S6 kinase alpha-3 (Homo sapiens) (UniProt P51812)
Ribosomal protein S6 kinase alpha-3 (Homo sapiens), sequence (P51812 whole entry): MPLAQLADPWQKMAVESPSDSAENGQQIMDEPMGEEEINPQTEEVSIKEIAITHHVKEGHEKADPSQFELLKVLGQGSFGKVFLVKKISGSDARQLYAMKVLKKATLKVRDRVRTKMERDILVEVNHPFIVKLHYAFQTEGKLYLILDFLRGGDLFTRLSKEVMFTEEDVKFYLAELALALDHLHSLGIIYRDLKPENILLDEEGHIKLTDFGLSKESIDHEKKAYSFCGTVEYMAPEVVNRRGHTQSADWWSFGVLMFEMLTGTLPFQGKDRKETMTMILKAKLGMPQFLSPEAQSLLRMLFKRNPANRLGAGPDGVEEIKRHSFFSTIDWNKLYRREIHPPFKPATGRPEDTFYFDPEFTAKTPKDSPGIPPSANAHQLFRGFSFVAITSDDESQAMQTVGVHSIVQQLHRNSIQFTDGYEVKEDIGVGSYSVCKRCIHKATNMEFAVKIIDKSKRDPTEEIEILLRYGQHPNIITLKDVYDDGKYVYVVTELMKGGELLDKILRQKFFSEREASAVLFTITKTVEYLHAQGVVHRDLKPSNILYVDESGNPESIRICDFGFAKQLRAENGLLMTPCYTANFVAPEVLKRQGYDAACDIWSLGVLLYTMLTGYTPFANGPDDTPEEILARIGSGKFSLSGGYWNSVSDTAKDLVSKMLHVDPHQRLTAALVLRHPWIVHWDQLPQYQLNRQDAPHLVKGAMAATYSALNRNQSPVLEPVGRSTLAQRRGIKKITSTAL

Measured: % residual kinase activity

Calcium/calmodulin-dependent protein kinase type II subunit gamma (Homo sapiens), sequence (Q13555 whole entry): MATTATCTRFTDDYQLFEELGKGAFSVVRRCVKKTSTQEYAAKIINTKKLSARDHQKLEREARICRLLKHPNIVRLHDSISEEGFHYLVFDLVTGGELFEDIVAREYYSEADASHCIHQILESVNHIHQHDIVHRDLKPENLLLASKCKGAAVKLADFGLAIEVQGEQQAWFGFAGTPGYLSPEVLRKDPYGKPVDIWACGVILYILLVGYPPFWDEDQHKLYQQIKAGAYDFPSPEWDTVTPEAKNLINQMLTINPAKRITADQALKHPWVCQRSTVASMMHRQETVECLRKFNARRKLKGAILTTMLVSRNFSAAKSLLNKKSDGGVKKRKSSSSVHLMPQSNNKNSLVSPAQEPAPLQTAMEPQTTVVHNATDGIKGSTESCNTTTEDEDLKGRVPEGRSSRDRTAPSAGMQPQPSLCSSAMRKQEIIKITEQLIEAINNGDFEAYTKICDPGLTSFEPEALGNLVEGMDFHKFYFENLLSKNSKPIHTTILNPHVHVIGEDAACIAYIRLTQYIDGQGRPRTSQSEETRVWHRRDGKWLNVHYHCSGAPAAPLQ
Tyrosine-protein kinase BTK (Homo sapiens), sequence (Q06187 whole entry): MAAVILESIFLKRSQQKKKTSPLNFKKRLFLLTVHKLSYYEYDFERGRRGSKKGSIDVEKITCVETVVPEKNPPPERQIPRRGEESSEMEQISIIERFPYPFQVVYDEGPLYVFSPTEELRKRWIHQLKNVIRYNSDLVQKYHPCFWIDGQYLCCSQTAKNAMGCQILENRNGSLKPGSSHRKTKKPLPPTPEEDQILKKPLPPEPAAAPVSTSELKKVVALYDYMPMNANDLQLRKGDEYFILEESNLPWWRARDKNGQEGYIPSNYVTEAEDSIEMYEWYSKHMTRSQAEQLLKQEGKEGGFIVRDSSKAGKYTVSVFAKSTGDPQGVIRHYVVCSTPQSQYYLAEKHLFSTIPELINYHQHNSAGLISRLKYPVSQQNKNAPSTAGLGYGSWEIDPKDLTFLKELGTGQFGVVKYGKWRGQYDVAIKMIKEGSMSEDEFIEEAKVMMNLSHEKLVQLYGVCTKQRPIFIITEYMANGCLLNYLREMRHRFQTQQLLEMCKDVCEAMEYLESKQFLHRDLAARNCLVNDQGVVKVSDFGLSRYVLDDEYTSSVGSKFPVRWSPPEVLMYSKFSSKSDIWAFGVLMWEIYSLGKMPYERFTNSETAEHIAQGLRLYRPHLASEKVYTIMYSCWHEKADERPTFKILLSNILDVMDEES

CN1CCN(c2cnc3c(C4CCN(C(=O)c5ccc(OC(F)(F)F)cc5N)CC4)ncnc3c2)CC1 [BAY-885]
inactive: [1] 98% | [2] 109% | [3] 93% | [4] 94% | [5] 107% | [6] 94% | [7] 113% | [8] 109% | [9] 117% | [10] 82% | [11] 38% | [12] 96% | [13] 118% | [14] 111% | [15] 114% | [16] 92% | [17] 101% | [18] 115% | [19] 120% | [20] 109%
